US20050187581A1, “Methods of treating disorders with electric fields” (priority 2000, published 2005)

Key:
mouse splenocytes = assay: [Ca^2+]c-high cells in lectin-stimulated mouse splenocytes, fluo-3 flow cytometry; type: cell-based, BALB/c mice
Description: In order to avoid contact of the cells and the lower electrode, polycarbonate membrane (Isopore, MILLIPORE, MA USA) was placed between the dish and the insert. Approximately 1 ml of the cell suspension was poured into culture well/space and covered with a lid.
Female BALB/c mice, 4-7 wk old obtained from CLEA Inc. (Tokyo, Japan) maintained in a conventional animal house equipped with clean air-filtering device were splenectomized under anesthesia, and cell suspensions of splenocytes were prepared. To examine cell viability, the cells were cultivated in Dulbecco's modified Eagle's medium (SIGMA, MO, USA) supplemented with 10% fetal bovine serum (FSB). The cells were maintained in Hank's balanced salt solution (HBSS) (SIGMA, MO, USA) during examination for [Ca^2+]c which was carried out within 4 hr after cell preparation. Cells were stored at 4 degree C. prior to use.
Splenocytes (10^6 cells/ml) were incubated for 20 min at 37 degrees C. in HBSS containing 2.5 μM fluo-3-acetoxylmethyl (Molecular Probes, USA) [Vandenberghe et al., 1990]. The cell suspension was then diluted 5 times with HBSS containing 1% FBS, incubated for 40 min at 37 degrees C., washed 3 times with assay buffer, and the cells were then suspended in the assay buffer at a concentration of 1×10^6/ml. Throughout the cell preparation, the cell suspensions were mixed gently.
Considering the reported synergistic interaction between EMF and mitogen (Walleczek and Liburdy, 1990), concanavalin-A (Con-A) (Seikagaku Co., Tokyo, Japan) and phytohemaglutinin (PHA) (SIGMA, MO, USA) were used.
Taking into account the results of the viability test for exposed murine splenocytes earlier assayed, we chose to use the optimum culture and exposure conditions (60 Hz, 6 μA/cm^2 EF) in carrying out the following five experiments: • (1) cells suspended in HEPES-buffered saline (BS)+1 mM CaCl2 were exposed to EF for a total of 40 min, and 12.5 μg/ml of Con-A was added after the first 8 min of exposure. The control groups consisted of EF-unexposed cells containing Con-A, and EF-exposed cells without Con-A. Percent [Ca^2+]c-high cells was checked at certain exposure points; • (2) cells in HEPES-BS+1 mM CaCl2 were exposed for a total of 12 min, and different concentrations (1 ng-12.5 μg/ml) of Con-A were added after the first 4 min of exposure. The control group was essentially the same as that of the experimental group but without EF-exposure; • (3) cells in HEPES-BS+1 mM CaCl2 were exposed for a total of 8 min, and 5 μg/ml of PHA was added after the first 4 min of exposure. The control groups consisted of EF-unexposed cells containing PHA, and EF-exposed cells without PHA; • (4) cells suspended in HEPES-BS without CaCl2 were exposed for a total of 12 min, and different concentrations (1 ng-5 μg/mil) of Con-A were added after the first 4 min of exposure. The control group was essentially the same as the experimental group but without EF exposure; and • (5) to evaluate the persistent effect of EF exposure, cells suspended in HEPES-BS+[…] were exposed for a total of 4 min, after which different concentrations (0.025-12.5 μg/ml) of Con-A were added, and the generation of [Ca^2+]c-high cells for the next 8 min without EF exposure was monitored with flow cytometry. The control was essentially the same as the experimental group but without any EF-exposure. Statistical Analysis

murine splenocytes = assay: Cytoplasmic free Ca^2+ in murine splenocytes stimulated with ConA, fluo3 flow cytometry; type: cell-based, mice; conditions: ConA stimulation after 4 min exposure
Description: In order to determine the effect of EF on calcium ion concentration in murine splenocytes, specific EF field exposures of 60 Hz were applied to murine splenocytes. Mice were splenectomized under anesthesia. In a 60 mm dish, the spleen was injected with PBS (phosphate buffered saline including 0.083% NH4Cl). The cells were re-suspended and maintained in Hank's balanced salt solution (HBSS) (SIGMA, MO, USA), during examination for [Ca^2+ ]c, which was carried out within 4 hours after cell preparation. Cells were stored at 4° C. prior to use.
The application of a 60 Hz EF to splenocyte cells created applied current densities of 6, 20, 60, and 200 μA/cm^2. Splenocyte cells were exposed to these conditions for 4 minutes, after which exposure the splenocyte samples were stimulated with Concanavalin A (ConA). Following stimulation of splenocytes with ConA, cytoplasmic free Ca^2+ concentration was determined by fluo3 flow cytometry.

ovariectomized rats = conditions: restraint, after 60 min session, n=6
Description: Rats were restricted by wrapping each with a thin polycarbonate sheet and laying it over the lower electrode for 30 min.
To examine the effect of exposure to EF, we used normal and ovariectomized rats. Normal rats were divided into two groups of restraint alone and restraint plus EF.
Ovariectomies were performed 4 weeks before experimentation. EF exposure and restraint treatment applied in this study were as follows: Rats were exposed to 50 Hz, 17,500 V/m EF for a total of 1 hr. Rats were restrained with thin polycarbonate sheeting for the latter half of the EF exposure period. The experimental design in the control groups was the same as in the experimental group except for the absence of EF exposure. […]
Hematological analyses including red and white blood cell count, platelet count, hematocrit and hemoglobin levels were performed using an automatic multi-hemocytometer (Sysmec CC-78, Sysmec inc., Tokyo, Japan). Plasma glucose, lactate and pyruvate levels were measured with an automatic analyzer (7170 Hitachi, Hitachi Co. ltd., Tokyo, Japan). ACTH levels were measured by using an ACTH radio immunoassay kit (ACTH IRMA, MITSUBISHI CHEMICAL Co. Ltd.) and a gamma counter (Auto-Gamma 5530 Gamma Counting System, Packard Instrument Co. ltd.). Plasma corticosterone level was measured using a commercial kit (ImmuChem Double Antibody Corticosterone kit, ICN Biomedicals Inc.). […]

[1] = tested on: BALB 3T3/A31 fibroblast/embryo cells; assay: Membrane potential of BALB 3T3 cells, DiBAC intensity; type: cell-based, murine; conditions: final concentration of 0.4 mM A23187
Description: A23187 is a monocarboxylic acid extracted from Streptomyces chartreusensis that acts as a mobile-carrier calcium ionophore. DiBAC is a fluorescent dye that enters the cell membrane when the membrane's potential changes. Thus, when the membranes of the BALB 3T3 cells depolarize, the DiBAC enters those membranes thereby increasing the intensity of the DiBAC signal (Y-axis) in the BALB 3T3 cells.
The changes in membrane potential were measured with flow cytometry. The methodology for the flow cytometry was as follows. Culture in DMEM was supplemented with 5% FCS 10 mM HEPES. It was then de-touched with 0.02% trypsin and 0.025% EDTA. […] It was then loaded with DiBAC4(3) of a final concentration of 200 nM. It was incubated at 37 degree C. for >5 min. Then the flow cytometry measurements were performed.

## concanavalin-A [Con-A]
Mouse splenocytes; 12.5 μg/ml Con-A
  Time post-Con-A stimulation of decline in [Ca^2+]c-high cells: approximately 4 min
  Time to saturation point of Con-A-induced response after addition of the mitogen: 5 to 8 min
Mouse splenocytes; 12.5 μg/ml Con-A, 1 mM CaCl2, EF-exposed and unexposed cell suspensions
  Number of [Ca^2+]c-high cells: increased significantly
Mouse splenocytes; 3.125-12.5 μg/ml Con-A, unexposed or earlier exposed to EF for 4 min
  [Ca^2+]c-high cells compared to cells stimulated with 0.025 μg/ml of Con-A: significant increase
Mouse splenocytes; 3.125 and 6.25 μg/ml Con-A
  Time post-Con-A stimulation at which sustained increase in [Ca^2+]c-high cells leveled off: about 8 min
Mouse splenocytes; Ca^2+-free cell condition, control and EF-exposed groups
  Con-A-dependent [Ca^2+]c rise: negligible
Murine splenocytes
  Calcium concentration in the splenocyte cells: increased

## CN1C(=O)CN=C(c2ccccc2)c2cc(Cl)ccc21 [diazepam]
Ovariectomized rats
  WBC counts: 85 ×10^2 cells/μl

## CNc1ccc2oc(C[C@H]3O[C@@]4(CC[C@H]3C)O[C@H]([C@H](C)C(=O)c3ccc[nH]3)[C@H](C)C[C@H]4C)nc2c1C(=O)O [A23187]
[1]
  Membrane potential (DiBAC intensity): alters the membrane potential
